According to article doi:10.1101/2025.07.01.662521v3, “Ligand-induced Conformational Plasticity of the CTLH E3 Ligase Receptor GID4” (biorxiv, 2026):
Read-outs that look alike come from different tables or passages of the source.

How the values were obtained:
[1] = molecular target: T1, GID4 (Homo sapiens, UniProt Q8IVV7); test: biochemical; parameters: SPR binding affinity to immobilized biotinylated GID4; details: read-out: KD by SPR
T1 construct: residues 116-300; N-terminal Strep-SUMO-3C-6xHis-Avi, HRV-3C cleaved, Avi-tag kept and biotinylated; E. coli BL21(DE3)
T1 sequence (Q8IVV7 116-300): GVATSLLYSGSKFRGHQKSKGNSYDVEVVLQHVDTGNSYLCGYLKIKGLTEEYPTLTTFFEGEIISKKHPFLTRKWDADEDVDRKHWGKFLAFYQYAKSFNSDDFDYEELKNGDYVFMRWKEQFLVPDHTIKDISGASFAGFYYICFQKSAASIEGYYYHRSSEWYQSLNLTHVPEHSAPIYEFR
Method: (§1) Following the identification of the binding pocket and the key interactions of the initial fragment, we initiated the synthesis of a series of analogs to explore the structure-activity relationship (SAR) (Table 1). The resulting changes in affinity were evaluated using surface plasmon resonance (SPR) and differential scanning fluorimetry (DSF). […] In the next step, we replaced the 3-Cl group to find an additional potency boost. […] All constructs were verified by sequencing. Protein was expressed by transforming plasmid into chemically competent recombinant E. coli BL21(DE3) strain. E coli was cultured in LB medium supplemented with 50 µg/mL kanamycin in shaker flasks at 37 °C and 160 rpm. Once an optical density at 600 nm (OD600) reached 0.5-0.6, protein expression was induced by an addition of 0.1 mM IPTG.

[2] = molecular target: T2, GID4 (Homo sapiens, UniProt Q8IVV7); parameters: Differential scanning fluorimetry, thermal shift of GID4; details: binder
T2 construct: residues 116-300, N-terminal 6xHis-SUMO tag (DSF construct)
T2 sequence (Q8IVV7 1-300): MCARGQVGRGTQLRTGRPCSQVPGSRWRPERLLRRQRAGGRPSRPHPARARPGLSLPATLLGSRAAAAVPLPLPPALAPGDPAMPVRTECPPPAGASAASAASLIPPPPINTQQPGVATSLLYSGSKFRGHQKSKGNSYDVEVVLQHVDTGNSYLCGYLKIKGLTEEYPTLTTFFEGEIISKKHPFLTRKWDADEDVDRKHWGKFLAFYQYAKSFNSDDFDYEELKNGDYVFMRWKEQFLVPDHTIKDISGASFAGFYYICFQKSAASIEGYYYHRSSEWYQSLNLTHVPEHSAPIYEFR
Method: Following the identification of the binding pocket and the key interactions of the initial fragment, we initiated the synthesis of a series of analogs to explore the structure-activity relationship (SAR) (Table 1). The resulting changes in affinity were evaluated using surface plasmon resonance (SPR) and differential scanning fluorimetry (DSF). […] In the next step, we replaced the 3-Cl group to find an additional potency boost. […] MATERIALS AND METHODS Recombinant Protein Expression and Purification GID4 Expression and Purification Human Glucose-induced degradation protein 4 homolog (Gid4, UniProt ID: Q8IVV7) residues 124-289 were cloned into a vector to generate a N-terminal 6xHis-SUMO-tag for crystallography studies, residues 116-300 were cloned into a vector to generate a N-terminal 6xHis-SUMO-tag for DSF studies and residues 116-300 were cloned into a vector to generate a N-terminal Strep-SUMO-3C-6xHis-AVI-tag for SPR experiments. All constructs were verified by sequencing. Protein was expressed by transforming plasmid into chemically competent recombinant E. coli BL21(DE3) strain. E coli was cultured in LB medium supplemented with 50 µg/mL kanamycin in shaker flasks at 37 °C and 160 rpm. Once an optical density at 600 nm (OD600) reached 0.5-0.6, protein expression was induced by an addition of 0.1 mM IPTG.

[3] = molecular target: T1, GID4; test: SPR; assay type: binding
[4] = molecular target: T3, HiBiT-GID4(FL) (Homo sapiens, UniProt Q8IVV7); parameters: species or system HEK293T; HiBiT cellular thermal shift of full-length GID4, luminescence, delta Tagg; details: binder
T3 construct: full length, N-terminal HiBiT tag, stably expressed in HEK293T (piggyBac)
T3 sequence (Q8IVV7 1-300): T2 sequence (Q8IVV7 1-300)
Description: (§2) Following the confirmation of cellular target engagement, we assessed the ability of GID4 to induce targeted protein degradation by synthesizing a panel of GID4-BRD4 bifunctional compounds. We utilized our lead ligand 14 together with a well-known BRD4 ligand JQ1, exploring a range of standard linkers with varying exit vectors and lengths, including rigid alkyl, and flexible PEG (2x, or 4xPEG) (Figure 6A). […] We assessed binary interactions with GID4 and BRD4, as well as the ternary complex formation by SPR and HTRF (Figure 6 and Table S2). All bifunctional compounds, except for 26, retained high affinity for BRD4 (K ^BRD4 =0.006-0.02 µM). […] Crucially, all degraders equipped with the active JQ1 warhead mediated ternary complex formation between GID4 and BRD4 (Figure 6 B-C). We further utilized NanoBRET assay to confirm BRD4 engagement, in both intact and lysed HEK293T cells (Table S2). […] This discrepancy indicates potential permeability limitations or active efflux of the bifunctional molecules. Despite successful BRD4 engagement, none of the degraders stabilized GID4 in the intracellular engagement assay, resulting in negative ΔTagg values (Table S2). This was consistent across all compounds, independent of linker length, composition, or exit vector. Consequently, no degradation of BRD4 was observed (Figures S11–S13), highlighting that while ternary complex formation is achievable in vitro, the physicochemical properties of these GID4-based PROTACs currently limit their intracellular efficacy.

[5] = molecular target: BRD4 (Homo sapiens, UniProt O60885); parameters: SPR binary binding affinity to BRD4; details: binder
Description: as §2

[6] = molecular target: T1, GID4; test: SPR, steady-state affinity; assay type: binding
Description: SPR, steady-state affinity on GID4

[7] = molecular target: T1, GID4; parameters: SPR binding affinity to immobilized biotinylated GID4; details: binder
Method: as §1

| Compound | Kd [1] | ΔTm by DSF (°C) [2] | other results |
| --- | --- | --- | --- |
| CNC(=O)c1cc(-c2cc(F)cc(N=C(N)N3CCC(C)(C)CC3)c2)oc1C [compound 11] | 0.31 µM | 4.8 ± 0.07 °C |  |
| Cc1ccc(-c2cc(F)cc(N=C(N)N3CCC(C)CC3)c2)o1 [compound 9] |  |  | Kd ([3]; PBS pH 7.4, 0.05% P-20, 1 mM DTT, 1% DMSO, biotinylated GID4 immobilised on SA chip, read-out: KD): 0.73 µM |
| COC1CCCN(C(=O)c2cc(-c3cc(F)cc(N=C(N)N4CCC(C)(C)CC4)c3)oc2C)C1 (racemic) [compound 19] | 0.05 µM | 7.1 ± 0.01 °C |  |
| COCCOCCC1CCN(C(=O)c2cc(-c3cc(F)cc(N=C(N)N4CCC(C)(C)CC4)c3)oc2C)CC1 [compound 20] | 0.05 µM | 6.5 ± 0,03 °C |  |
| Cc1oc(-c2cc(F)cc(/N=C(/N)N3CCC(C)(C)CC3)c2)cc1C(=O)N1CCC(CN2CCN(C(=O)C[C@H]3N=C(c4ccc(Cl)cc4)c4c(sc(C)c4C)-n4c(C)nnc43)CC2)CC1 [compound 26] |  |  | Kd ([3]; PBS pH 7.4, 0.05% P-20, 1 mM DTT, 1% DMSO, biotinylated GID4 immobilised on SA chip, read-out: KD^GID4): 0.63 µM; GID4 intracellular target engagement ΔTagg [ºC] [4]: -2 ± 0.6 °C |
| Cc1oc(-c2cc(F)cc(/N=C(/N)N3CCC(C)(C)CC3)c2)cc1C(=O)N1CCCC(OCCOCCOCCNC(=O)C[C@@H]2N=C(c3ccc(Cl)cc3)c3c(sc(C)c3C)-n3c(C)nnc32)C1 (stereo partly shown) [compound 28, 28] |  |  | GID4 intracellular target engagement ΔTagg [ºC] [4]: -2.6 ± 3.7 °C; Kd [5]: 0.016 µM |
| NC(=Nc1ccccc1)N1CCCCC1 [compound 1] |  | 1.0 ± 0.06 °C | Kd [6]: 78.8 µM |
| Cc1oc(-c2cc(F)cc(/N=C(/N)N3CCC(C)(C)CC3)c2)cc1C(=O)N1CCOCC1 [compound 16, 16] | 0.09 µM | 6.2 ± 0.01 °C |  |
| Cc1oc(-c2cc(F)cc(/N=C(/N)N3CCC(C)(C)CC3)c2)cc1C(=O)N1CCCC(CN2CCN(C(=O)C[C@@H]3N=C(c4ccc(Cl)cc4)c4c(sc(C)c4C)-n4c(C)nnc43)CC2)C1 (stereo partly shown) [compound 25, 25] |  |  | GID4 intracellular target engagement ΔTagg [ºC] [4]: -1.4 ± 0.3 °C; Kd [7]: 0.5 µM; Kd [5]: 0.02 µM |
| COCCOCCC1CCCN(C(=O)c2cc(-c3cc(F)cc(N=C(N)N4CCC(C)(C)CC4)c3)oc2C)C1 (racemic) [compound 21] | 0.05 µM | 6.8 ± 0.04 °C |  |
| Cc1oc(-c2cc(F)cc(N=C(N)N3CCC(C)(C)CC3)c2)cc1C(=O)N(C)C [compound 12] | 0.06 µM | 6.9 ± 0.18 °C |  |
| CC(=O)N1CCN(CC2CCN(C(=O)c3cc(-c4cc(F)cc(N=C(N)N5CCC(C)(C)CC5)c4)oc3C)CC2)CC1 [compound 22] | 0.14 µM | 5.9 ± 0.04 °C |  |
| NC(=Nc1cccc(Cl)c1)N1CCCCC1 [compound 2] |  | 1.6 ± 0.13 °C | Kd ([3]; read-out: KD): 23 µM |
| CC1CCCN(C(N)=Nc2cc(F)cc(Cl)c2)C1 (stereo not shown) [compound 7] |  | 3.3 ± 0.03 °C | Kd ([3]; read-out: KD): 4.12 µM |
| Cc1oc(-c2cc(F)cc(/N=C(/N)N3CCC(C)(C)CC3)c2)cc1C(=O)N1CCC(CN2CCN(C(=O)C[C@@H]3N=C(c4ccc(Cl)cc4)c4c(sc(C)c4C)-n4c(C)nnc43)CC2)CC1 [compound 24, 24] |  |  | GID4 intracellular target engagement ΔTagg [ºC] [4]: -1.7 ± 1.2 °C; Kd [7]: 0.32 µM; Kd [5]: 0.013 µM |
| Cc1oc(-c2cc(F)cc(/N=C(/N)N3CCC(C)(C)CC3)c2)cc1C(=O)N1CCN(C)CC1 [compound 15, 15] | 0.12 µM | 5.9 ± 0.08 °C |  |
| NC(=Nc1cccc(F)c1)N1CCCCC1 [compound 3] |  | 3.3 ± 0.06 °C | Kd ([3]; read-out: KD): 12 µM |
| NC(=Nc1cc(F)cc(Cl)c1)N1CCCCC1 [compound 4] |  | 2.8 ± 0.08 °C | Kd ([3]; read-out: KD): 8.16 µM |
| Cc1oc(-c2cc(F)cc(/N=C(/N)N3CCC(C)(C)CC3)c2)cc1C(=O)N1CCCC(OCCOCCOCCOCCOCCNC(=O)C[C@@H]2N=C(c3ccc(Cl)cc3)c3c(sc(C)c3C)-n3c(C)nnc32)C1 (stereo partly shown) [compound 30, 30] |  |  | GID4 intracellular target engagement ΔTagg [ºC] [4]: -0.3 ± 1.0 °C; Kd [5]: 0.006 µM |
| Cc1oc(-c2cc(F)cc(N=C(N)N3CCC(C)(C)CC3)c2)cc1C(=O)Nc1ccccc1 [compound 13] | 1.43 µM | 3.9 ± 0.03 °C |  |
| Cc1oc(-c2cc(F)cc(N=C(N)N3CCC(C)(C)CC3)c2)cc1C(=O)N1CCCCC1 [compound 14] |  | 7.7 ± 0.05 °C | Kd ([3]; read-out: KD^GID4): 0.03 µM |
| CC(=O)N1CCN(CC2CCCN(C(=O)c3cc(-c4cc(F)cc(N=C(N)N5CCC(C)(C)CC5)c4)oc3C)C2)CC1 (racemic) [compound 23] | 0.09 µM | 6.4 ± 0.02 °C |  |
| Cc1ccc(-c2cc(F)cc(N=C(N)N3CCCCC3C)c2)o1 (stereo not shown) [compound 8] |  | 4.3 ± 0.05 °C | Kd ([3]; read-out: KD): 0.94 µM |
| COC1CCN(C(=O)c2cc(-c3cc(F)cc(N=C(N)N4CCC(C)(C)CC4)c3)oc2C)CC1 [compound 18] | 0.13 µM | 7.1 ± 0,04 °C |  |
| CC1CCCCN1C(N)=Nc1cc(F)cc(Cl)c1 (stereo not shown) [compound 5] |  | 3.3 ± 0.04 °C | Kd ([3]; read-out: KD): 2.87 µM |
| CC1CCN(C(N)=Nc2cc(F)cc(Cl)c2)CC1 [compound 6] |  | 3.2 ± 0.08 °C | Kd ([3]; read-out: KD): 2.94 µM |
| Cc1oc(-c2cc(F)cc(/N=C(/N)N3CCC(C)(C)CC3)c2)cc1C(=O)N1CCC(OCCOCCOCCOCCOCCNC(=O)C[C@@H]2N=C(c3ccc(Cl)cc3)c3c(sc(C)c3C)-n3c(C)nnc32)CC1 [compound 29, 29] |  |  | GID4 intracellular target engagement ΔTagg [ºC] [4]: 0.1 ± 0.4 °C; Kd [5]: 0.006 µM |
